In patent US20110281802A1, “COMPOSITION FOR TREATMENT AND PREVENTION OF HAIR LOSS AND PREMATURE GRAYING OF HAIR” (Immudiagnostik AG, priority 2007, published 2011):

Tests used:
Format in all cases: cell-based
[1] = test system: human anagen VI hair follicles; assay: Melanogenesis, Fontana Masson staining measured by Image J, assay #1; conditions: for Mean relative darkening of the groups (measured by image J), Mean: 9 days, dark=small index number, light=high index number
Method: (§1) Assay #1 Culture HF429: Hair follicles were grown in the wells of a microtiter plate (3 follicles per well) and treated for 9 days with culture medium and test substance as indicated in FIG. 1. Thereafter, elongation, melanogenesis and hair cycle stage were determined.
Fontana Masson staining was performed at the end of the culture period and photos taken of snap frozen sections. The photos were analysed (Image J, public domain, developed at the National Institutes of Health, USA) by measuring the density of two squares, consisting of 150×150 dots, placed over the darkest areas on both sides of the dermal papilla. For Fontana-Masson staining, fixed sections were treated in darkness for 40 minutes with a solution containing 10% silver nitrate (Merck & Co., Inc., Whitehouse Station, N.J., USA; CatNo 1.01512.0100), following by a development in solution containing 5% sodium thiosulphate (Merck & Co., Inc.; CatNo 1.06512.2500) for 1 minute and multiple washings in distilled water for 3 minutes. Counterstaining with 0.5% Neutralrot (Chroma Muenster, Germany, CatNo 2E038). Then dehydration in xylol and covering with Eukitt (O. Kindler GmbH, Freiburg, Germany; CatNo E115).
(§2) All data were analysed by two-tailed unpaired t-test (SPSS analysis software SPSS Inc., Chicago, USA). For determination of elongation, two outliers at top and bottom end of value range were eliminated; with the measurement of melanogenesis one outlier at both, top and bottom range, was eliminated. Results are given as mean value and standard error of measurement (SEM).
Micro-dissected anagen VI hair follicles were treated as above described. At the end of the culture period Fontana Masson staining was performed and photos were taken of the snap frozen sections. The pictures were analysed by measuring the darkness (brightness) of two squares, consisting of 150×150 dots, placed over the darkest areas on both sides of the dermal papilla (dark=small index number, light=high index number). The shading of the different groups was compared to each other and the results were analysed using Student's t-test. The results are shown below in Table 5 and FIG. 7.

[2] = test system: human anagen VI hair follicles; assay: Hair shaft elongation of organ-cultured hair follicles, assay #1 (culture HF 429); conditions: for Hair growth compared with control (in words): p<0.05
Method: (§3) Human anagen VI hair follicles were isolated from scalp skin obtained from three different individuals undergoing routine face-lift surgery. All experiments were performed according to Helsinki guidelines.
(§4) Hair follicles were isolated as described (Philpott MP et al, Human hair growth in vitro; J Cell Science 1990, 97(Pt 3):463-71). Isolated HFs were maintained in supplemented, serum-free Williams E medium (Biochrom, Cambridge, UK) supplemented with 2 mMol/L L-glutamine (Invitrogen, Paisley, UK), 10 ng/mL hydrocortisone (Sigma-Aldrich, Taufkirchen, Germany), 10 μg/mL insulin (Sigma-Aldrich), and 1% antibiotic/antimycotic mixture (Gibco, Karlsruhe, Germany). Hair follicles were placed in a 24-well plate with 500 μL medium (day 0) and incubated in a CO2-incubator (5% CO2, 37° C.) over night without any treatment. The next day (day 1) medium was exchanged and test substance was added to each well (5 μL of stock solution was added to 495 μL culture medium). The medium or medium with test substance was changed every 48 hours.
as §1
(§5) Hair shaft length measurements were performed every second day on individual hair follicles using a binocular microscope with an eyepiece measuring reticule. The length of the follicle was defined as the distance between the base of the bulb and the cut end of the hair fibre (Philpott MP et al, Human hair growth in vitro; J Cell Science 1990, 97(Pt 3):463-71).
as §2

human hair follicles = assay: Hair cycle staging of cultured hair follicles (assays #1, #2, #3)
Method: Photodocuments from the Fontana Masson staining were used for hair follicle staging according to previously well-defined morphological criteria (Stenn K S et al, Controls of Hair Follicle Cycling; Physiol Rev 2001, 81:449-494, Müller-Röver S et al, A Comprehensive Guide for the Accurate Classification of Murine Hair Follicles in Distinct Hair Cycle Stages; J Invest Dermatol 2001, 117:3-15). The percentage of hair follicles in anagen, early, mid and late catagen was determined.
Photodocuments from the Fontana Masson staining were used for hair follicle staging according to previously well-defined morphological criteria (Stenn K S et al, Controls of Hair Follicle Cycling; Physiol Rev 2001, 81:449-494, Müller-Röver S et al, A Comprehensive Guide for the Accurate Classification of Murine Hair Follicles in Distinct Hair Cycle Stages; J Invest Dermatol 2001, 117:3-15). The percentage of hair follicles in anagen, early, mid and late catagen was determined in the different assays.

[3] = test system: human anagen VI hair follicles; assay: Hair shaft elongation of organ-cultured hair follicles, assay #3 (culture HF 446)
Method: as §3, §4
Assay #3 Culture HF 446: Eight hair follicle cultures (3 follicles/well) were treated with various concentration of test substance as described for 2 days, followed by snap freezing and sectioning of two wells. Six wells were treated up to 9 days, then snap frozen and sectioned. The distribution of test substances and concentrations were as indicted in FIG. 3. The parameter measured after two days was proliferation/apoptosis, and the parameters measured after 9 days were elongation, proportion of cells in proliferation/apoptosis, and hair cycle stage
as §5, §2

[4] = test system: human anagen VI hair follicles; assay: Hair shaft elongation of organ-cultured hair follicles, assay #2 (culture HF 441)
Method: as §3, §4, §5, §2

## Thymosin beta-4 [TB4]
[1]; 100 ng/mL
  Mean relative darkening of the groups (measured by image J), Mean: 101.04
[1]; 1000 ng/mL
  Mean relative darkening of the groups (measured by image J), Mean: 85.52
[1]; quantitative Masson-Fontana histochemistry
  Influence on HF melanogenesis (in words): did not influence HF melanogenesis
[2]; 100 ng/mL, Day 0
  Mean elongation in % compared to day 1: 0.00%
[2]; 100 ng/mL, Day 1
  Mean elongation in % compared to day 1: 12.26%
[2]; 100 ng/mL, Day 3
  Mean elongation in % compared to day 1: 35.49%
[2]; 100 ng/mL, Day 5
  Mean elongation in % compared to day 1: 49.79%
[2]; 100 ng/mL, Day 7
  Mean elongation in % compared to day 1: 61.36%
[2]; 100 ng/mL, Day 9
  Mean elongation in % compared to day 1: 74.11%
[2]; 100 ng/mL
  Hair growth compared with control (in words): significant lack of hair growth
[2]; 1000 ng/mL, Day 0
  Mean elongation in % compared to day 1: 0.00%
[2]; 1000 ng/mL, Day 1
  Mean elongation in % compared to day 1: 14.20%
[2]; 1000 ng/mL, Day 3
  Mean elongation in % compared to day 1: 39.31%
[2]; 1000 ng/mL, Day 5
  Mean elongation in % compared to day 1: 66.20%
[2]; 1000 ng/mL, Day 7
  Mean elongation in % compared to day 1: 90.23%
[2]; 1000 ng/mL, Day 9
  Mean elongation in % compared to day 1: 103.17%
Human hair follicles; 100 ng, Assay #1 and #3
  Proportion in catagen compared to control (in words): higher proportion of cells in catagen compared to control
Human hair follicles; 1000 ng/mL, after nine days
  Proportion in the stage of anagen compared with controls (in words): consistently more cells in the stage of anagen
[3]; 100 ng/mL, Day 0
  Mean elongation in % compared to day 0: 0%
[3]; 100 ng/mL, Day 1
  Mean elongation in % compared to day 0: 5.91%
[3]; 100 ng/mL, Day 3
  Mean elongation in % compared to day 0: 42.55%
[3]; 100 ng/mL, Day 5
  Mean elongation in % compared to day 0: 59.58%
[3]; 100 ng/mL, Day 7
  Mean elongation in % compared to day 0: 73.62%
[3]; 100 ng/mL, Day 9
  Mean elongation in % compared to day 0: 83.13%
[3]; 1000 ng/mL, Day 0
  Mean elongation in % compared to day 0: 0%
[3]; 1000 ng/mL, Day 1
  Mean elongation in % compared to day 0: 8.28%
[3]; 1000 ng/mL, Day 3
  Mean elongation in % compared to day 0: 39.17%
[3]; 1000 ng/mL, Day 5
  Mean elongation in % compared to day 0: 53.52%
[3]; 1000 ng/mL, Day 7
  Mean elongation in % compared to day 0: 65.51%
[3]; 1000 ng/mL, Day 9
  Mean elongation in % compared to day 0: 70.08%
[3]; 1000 ng/mL, p<0.05
  Rate of hair growth compared with control (in words): significantly lowered rate of hair growth
[4]; 100 ng/mL, Day 3
  Mean elongation in % compared to day 0: 19.35%
[4]; 100 ng/mL, Day 5
  Mean elongation in % compared to day 0: 31.66%
[4]; 100 ng/mL, Day 7
  Mean elongation in % compared to day 0: 41.77%
[4]; 100 ng/mL, Day 9
  Mean elongation in % compared to day 0: 49.94%
[4]; 100 ng/mL, Day O
  Mean elongation in % compared to day 0: 0%
[4]; 1000 ng/mL, Day 3
  Mean elongation in % compared to day 0: 21.68%
[4]; 1000 ng/mL, Day 5
  Mean elongation in % compared to day 0: 32.59%
[4]; 1000 ng/mL, Day 7
  Mean elongation in % compared to day 0: 37.48%
[4]; 1000 ng/mL, Day 9
  Mean elongation in % compared to day 0: 43.30%
[4]; 1000 ng/mL, Day O
  Mean elongation in % compared to day 0: 0%

## thymulin
[1]; 10 pg/mL
  Fontana Masson staining (melanin) compared with control group (in words): significantly more staining
  Mean relative darkening of the groups (measured by image J), Mean: 75.73
[1]; 100 pg/mL
  Mean relative darkening of the groups (measured by image J), Mean: 90.48
[2]; 10 pg/mL, Day 0
  Mean elongation with thymulin in percent compared to day 0: 0%
[2]; 10 pg/mL, Day 1
  Mean elongation with thymulin in percent compared to day 0: 13.19%
[2]; 10 pg/mL, Day 3
  Mean elongation with thymulin in percent compared to day 0: 37.58%
[2]; 10 pg/mL, Day 5
  Mean elongation with thymulin in percent compared to day 0: 64.05%
[2]; 10 pg/mL, Day 7
  Mean elongation with thymulin in percent compared to day 0: 75.10%
[2]; 10 pg/mL, Day 9
  Mean elongation with thymulin in percent compared to day 0: 90.98%
[2]; 100 pg/mL, Day 0
  Mean elongation with thymulin in percent compared to day 0: 0%
[2]; 100 pg/mL, Day 1
  Mean elongation with thymulin in percent compared to day 0: 11.33%
[2]; 100 pg/mL, Day 3
  Mean elongation with thymulin in percent compared to day 0: 31.50%
[2]; 100 pg/mL, Day 5
  Mean elongation with thymulin in percent compared to day 0: 53.75%
[2]; 100 pg/mL, Day 7
  Mean elongation with thymulin in percent compared to day 0: 68.76%
[2]; 100 pg/mL, Day 9
  Mean elongation with thymulin in percent compared to day 0: 83.13%
[2]; 100 pg/mL
  Hair growth compared with control (in words): significant lack of hair growth
Human hair follicles; 10 pg and 100 pg/mL, three assays, 9-day treatment
  Proportion of HFs in anagen compared with control groups (in words): consistently a higher proportion of HFs in anagen than control groups
[3]; 10 pg/mL, Day 0
  Mean elongation in % compared to day 0: 0%
[3]; 10 pg/mL, Day 1
  Mean elongation in % compared to day 0: 7.30%
[3]; 10 pg/mL, Day 3
  Mean elongation in % compared to day 0: 45.35%
[3]; 10 pg/mL, Day 5
  Mean elongation in % compared to day 0: 58.41%
[3]; 10 pg/mL, Day 7
  Mean elongation in % compared to day 0: 67.70%
[3]; 10 pg/mL, Day 9
  Mean elongation in % compared to day 0: 78.70%
[3]; 100 pg/mL, Day 0
  Mean elongation in % compared to day 0: 0%
[3]; 100 pg/mL, Day 1
  Mean elongation in % compared to day 0: 5.86%
[3]; 100 pg/mL, Day 3
  Mean elongation in % compared to day 0: 40.11%
[3]; 100 pg/mL, Day 5
  Mean elongation in % compared to day 0: 62.88%
[3]; 100 pg/mL, Day 7
  Mean elongation in % compared to day 0: 80.67%
[3]; 100 pg/mL, Day 9
  Mean elongation in % compared to day 0: 94.36%
[4]; 10 pg/mL, Day 3
  Mean elongation in % compared to day 0: 20.86%
[4]; 10 pg/mL, Day 5
  Mean elongation in % compared to day 0: 34.97%
[4]; 10 pg/mL, Day 7
  Mean elongation in % compared to day 0: 43.26%
[4]; 10 pg/mL, Day 9
  Mean elongation in % compared to day 0: 58.90%
[4]; 10 pg/mL, Day O
  Mean elongation in % compared to day 0: 0%
